Target: T1, F508delCFTR cell surface expression in CFBE41o-F508delCFTR-HRP cells (Homo sapiens, UniProt P13569, DEL508-508)
T1 construct: fused on or other part: Horseradish peroxidase (HRP) reporter inserted in the fourth exofacial (extracellular) loop of CFTR; expression is doxycycline-inducible
Assay: Cell Surface Expression-Horse Radish Peroxidase (CSE-HRP) Assay
Assay type: cell-based
Settings: for EC50: CFBE41o-F508delCFTR-HRP cells, 18-24 hours at 33° C., 8-point curve, highest concentration 20 μM; for Maximum % activity (%): maximum at any tested concentration, normalized to on-plate positive control (3 μM)
Excerpt: Cell Surface Expression-Horse Radish Peroxidase (CSE-HRP) Assay:
A cellular assay for measuring the F508delCFTR cell surface expression after correction with test compounds was developed in human lung derived epithelial cell line (CFBE41o-) (Veit G et al, (2012) Mol Biol Cell. 23(21): 4188-4202). This was achieved by expressing the F508delCFTR mutation along with a horseradish peroxidase (HRP) in the fourth exofacial loop and then measuring the HRP activity using luminescence readout from these cells, CFBE41o-F508delCFTR-HRP, that were incubated overnight with the test corrector compounds. Briefly, for this primary assay, the CFBE41o-F508delCFTR-HRP cells were plated in 384-well plates (Greiner Bio-one; Cat 781080) at 4,000 cells/well along with 0.5 μg/mL doxycycline to induce the F508delCFTR-HRP expression and further incubated at 37° C., 5% CO2 for 72 hours. The test compounds were then added at the required concentrations and further incubated for 18-24 hours at 33° C. The highest concentration tested was 20 μM with an 8-point concentration response curve using a 3-fold dilution. Three replicate plates were run to determine one EC50. All plates contained negative controls (dimethyl sulfoxide, DMSO) and positive controls (3 μM of 3-[(2R,4R)-4-({[1-(2,2-difluoro-1,3-benzodioxol-5-yl)cyclopropyl]carbonyl}amino)-7-methoxy-3,4-dihydro-2H-chromen-2-yl]benzoic acid) as well as on-plate concentration response of the positive control. Post incubation, the plates were washed 5× times with Dulbecco's phosphate buffered saline (DPBS), followed by the addition of the HRP substrate, luminol (50 μL), and measuring the HRP activity using luminescence readout on EnVision® Multilabel Plate Reader (Perkin Elmer; product number 2104-0010). The raw counts from the experiment are analyzed using Accelrys® Assay Explorer v3.3.
Z′ greater than 0.5 was used as passing quality control criteria for the plates.
The Z′ is defined as: 1−[3*SDPositive Control+3*SDNegative Control/Absolute(MeanPositive Control−MeanNegative Control)] wherein “SD” is standard deviation.
The % activity measured at each of the 8 test concentrations of the test compound was normalized to the on-plate positive control using the following formula: % activity=[(test compound response DMSO response)/(positive control response DMSO response)]*100
The maximum % activity achieved for the test compound at any tested concentration is presented in Table 1 along with the EC50 calculated using the following general sigmoidal curve with variable Hill slope equation (described as Model 42 in the Accelrys® Assay Explorer v3.3 software): y=(a−d)/(1+(x/c)^b)+d
General sigmoidal curve with concentration, response, top, bottom, EC50 and Hill slope.
This model describes a sigmoidal curve with an adjustable baseline, a. The equation can be used to fit curves where response is either increasing or decreasing with respect to the independent variable, “x”.
“x” is a concentration of drug under test.
“a” is the maximum response, and “d” is the minimum response
“c” is the inflection point (EC50) for the curve. That is, “y” is halfway between the lower and upper asymptotes when x=c.
“b” is the slope-factor or Hill coefficient. The sign of b is positive when the response increases with increasing dose and is negative when the response decreases with increasing dose (inhibition).

T1 sequence (P13569 with tags, fused parts or gaps DEL508-508 limits assumed): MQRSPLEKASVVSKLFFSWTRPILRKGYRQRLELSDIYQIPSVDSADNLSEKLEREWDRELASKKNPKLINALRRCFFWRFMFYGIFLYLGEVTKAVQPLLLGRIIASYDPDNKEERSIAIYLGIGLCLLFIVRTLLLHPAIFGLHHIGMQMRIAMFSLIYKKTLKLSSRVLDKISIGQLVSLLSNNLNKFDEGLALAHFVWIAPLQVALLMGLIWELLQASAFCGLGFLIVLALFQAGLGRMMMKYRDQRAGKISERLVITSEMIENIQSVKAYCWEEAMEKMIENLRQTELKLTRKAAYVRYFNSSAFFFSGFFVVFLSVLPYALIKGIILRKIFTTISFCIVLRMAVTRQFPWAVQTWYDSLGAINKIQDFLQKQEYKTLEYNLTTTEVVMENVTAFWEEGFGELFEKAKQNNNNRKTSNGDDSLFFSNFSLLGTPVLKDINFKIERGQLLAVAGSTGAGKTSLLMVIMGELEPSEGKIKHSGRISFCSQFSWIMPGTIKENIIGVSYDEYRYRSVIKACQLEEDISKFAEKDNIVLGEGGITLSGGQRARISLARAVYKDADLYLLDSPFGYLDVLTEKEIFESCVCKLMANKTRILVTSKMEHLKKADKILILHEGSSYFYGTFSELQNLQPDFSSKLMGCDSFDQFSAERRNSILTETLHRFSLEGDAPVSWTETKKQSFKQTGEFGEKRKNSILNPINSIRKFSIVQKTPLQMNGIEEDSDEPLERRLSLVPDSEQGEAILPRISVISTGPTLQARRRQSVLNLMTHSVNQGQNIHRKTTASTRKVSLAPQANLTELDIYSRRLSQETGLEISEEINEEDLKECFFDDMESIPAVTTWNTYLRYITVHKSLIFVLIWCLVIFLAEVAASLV
T1 sequence (P13569 919-1480 limits assumed, stated change not applied): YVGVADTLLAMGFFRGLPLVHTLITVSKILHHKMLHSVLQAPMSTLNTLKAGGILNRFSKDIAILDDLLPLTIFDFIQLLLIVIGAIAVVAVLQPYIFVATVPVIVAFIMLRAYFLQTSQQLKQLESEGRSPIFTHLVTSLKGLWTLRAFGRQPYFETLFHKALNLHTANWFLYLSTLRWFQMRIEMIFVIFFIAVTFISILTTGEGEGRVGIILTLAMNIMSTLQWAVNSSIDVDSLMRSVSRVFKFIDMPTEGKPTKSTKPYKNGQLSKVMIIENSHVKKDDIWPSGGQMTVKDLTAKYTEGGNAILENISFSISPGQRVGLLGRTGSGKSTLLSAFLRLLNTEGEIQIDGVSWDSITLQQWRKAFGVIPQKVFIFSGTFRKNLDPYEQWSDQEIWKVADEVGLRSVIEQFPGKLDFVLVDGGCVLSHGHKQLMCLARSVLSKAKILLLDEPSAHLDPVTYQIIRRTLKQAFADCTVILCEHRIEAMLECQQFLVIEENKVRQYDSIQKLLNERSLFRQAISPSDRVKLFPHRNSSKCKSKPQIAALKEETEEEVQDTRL

Row | Compound | EC50 | Maximum % activity (%)
1 | C[C@]1(C(=O)Nc2ccc(N3CCC(O)C3)nc2)COc2cc3c(cc21)OC(F)(F)O3 (stereo partly drawn) [Example 72, (7R)-2,2-difluoro-N-[6-(3-hydroxypyrrolidin-1-yl)pyridin-3-yl]-7-methyl-6,7-dihydro-2H-furo[2,3-f][1,3]benzodioxole-7-carboxamide] | 9200 nM | 28%
2 | COc1ccc2c(c1)O[C@@H](c1ccc(C(=O)N(CCO)CCO)cn1)C[C@H]2NC(=O)[C@@]1(C)COc2cc3c(cc21)OC(F)(F)O3 [Example 236, 6-[(2R,4R)-4-{[(7R)-2,2-difluoro-7-methyl-6,7-dihydro-2H-furo[2,3-f][1,3]benzodioxole-7-carbonyl]amino}-7-methoxy-3,4-dihydro-2H-1-benzopyran-2-yl]-N,N-bis(2-hydroxyethyl)pyridine-3-carboxamide] | 70 nM | 131%
3 | COc1ccc2c(c1)O[C@@H](c1ccc(C(=O)N(C)CC(O)c3ccccc3)cn1)C[C@H]2NC(=O)[C@@]1(C)COc2cc3c(cc21)OC(F)(F)O3 (stereo partly drawn) [Example 211, 6-[(2R,4R)-4-{[(7R)-2,2-difluoro-7-methyl-6,7-dihydro-2H-furo[2,3-f][1,3]benzodioxole-7-carbonyl]amino}-7-methoxy-3,4-dihydro-2H-1-benzopyran-2-yl]-N-(2-hydroxy-2-phenylethyl)-N-methylpyridine-3-carboxamide] | 30 nM | 124%
4 | CCOC(=O)C1(CN)CCC([C@H]2C[C@@H](NC(=O)[C@@]3(C)COc4cc5c(cc43)OC(F)(F)O5)c3ccc(OC(F)(F)F)cc3O2)CC1 (stereo partly drawn) [Example 287, ethyl 1-(aminomethyl)-4-[(2R,4R)-4-{[(7R)-2,2-difluoro-7-methyl-6,7-dihydro-2H-furo[2,3-f][1,3]benzodioxole-7-carbonyl]amino}-7-(trifluoromethoxy)-3,4-dihydro-2H-1-benzopyran-2-yl]cyclohexane-1-carboxylate] | 640 nM | 199%
5 | CC(C)(COCc1ccccc1)c1cc2cc(NC(=O)[C@@]3(C)COc4cc5c(cc43)OC(F)(F)O5)c(F)cc2[nH]1 [Example 204, (7R)—N-{2-[1-(benzyloxy)-2-methylpropan-2-yl]-6-fluoro-1H-indol-5-yl}-2,2-difluoro-7-methyl-6,7-dihydro-2H-furo[2,3-f][1,3]benzodioxole-7-carboxamide] | 310 nM | 134%
6 | C[C@]1(C(=O)N[C@@H]2C[C@H](C3CCN(C(=O)OCc4ccccc4)CC3)Oc3cc(OC(F)(F)F)ccc32)COc2cc3c(cc21)OC(F)(F)O3 [Example 224, benzyl 4-[(2R,4R)-4-{[(7R)-2,2-difluoro-7-methyl-6,7-dihydro-2H-furo[2,3-f][1,3]benzodioxole-7-carbonyl]amino}-7-(trifluoromethoxy)-3,4-dihydro-2H-1-benzopyran-2-yl]piperidine-1-carboxylate] | 310 nM | 199%
7 | COc1ccc2c(c1)O[C@H]([C@H]1CC[C@H](C(=O)O)CC1)C[C@@H]2NC(=O)[C@@]1(C)COc2cc3c(cc21)OC(F)(F)O3 [Example 154, trans-4-[(2S,4S)-4-{[(7R)-2,2-difluoro-7-methyl-6,7-dihydro-2H-furo[2,3-f][1,3]benzodioxole-7-carbonyl]amino}-7-methoxy-3,4-dihydro-2H-1-benzopyran-2-yl]cyclohexane-1-carboxylic acid] | 915 nM | 103%
8 | COc1ccc2c(c1)O[C@@H](c1cccc(C(=O)O)c1)C[C@H]2NC(=O)[C@@]1(C)COc2cc3c(cc21)OC(F)(F)O3 [Example 14, 3-[(2R,4R)-4-{[(7R)-2,2-difluoro-7-methyl-6,7-dihydro-2H-furo[2,3-f][1,3]benzodioxole-7-carbonyl]amino}-7-methoxy-3,4-dihydro-2H-1-benzopyran-2-yl]benzoic acid] | 380 nM | 187%
9 | COc1ccc2c(c1)O[C@@H](c1cnc(Cl)cn1)C[C@H]2NC(=O)[C@@]1(C)COc2cc3c(cc21)OC(F)(F)O3 [Example 193, (7R)—N-[(2R,4R)-2-(5-chloropyrazin-2-yl)-7-methoxy-3,4-dihydro-2H-1-benzopyran-4-yl]-2,2-difluoro-7-methyl-6,7-dihydro-2H-furo[2,3-f][1,3]benzodioxole-7-carboxamide] | 180 nM | 118%
10 | COc1ccc2c(c1)O[C@@H](c1ccc(C(C)(C)O)cn1)C[C@H]2NC(=O)[C@@]1(C)COc2cc3c(cc21)OC(F)(F)O3 [Example 181, (7R)-2,2-difluoro-N-{(2R,4R)-2-[5-(2-hydroxypropan-2-yl)pyridin-2-yl]-7-methoxy-3,4-dihydro-2H-1-benzopyran-4-yl}-7-methyl-6,7-dihydro-2H-furo[2,3-f][1,3]benzodioxole-7-carboxamide] | 30 nM | 129%
11 | C[C@]1(C(=O)N[C@@H]2C[C@H]([C@H]3CC[C@H](C(=O)N4CCN(CCO)CC4)CC3)Oc3cc(OC(F)(F)F)ccc32)COc2cc3c(cc21)OC(F)(F)O3 [Example 266, (7R)-2,2-difluoro-N-[(2R,4R)-2-{trans-4-[4-(2-hydroxyethyl)piperazine-1-carbonyl]cyclohexyl}-7-(trifluoromethoxy)-3,4-dihydro-2H-1-benzopyran-4-yl]-7-methyl-6,7-dihydro-2H-furo[2,3-f][1,3]benzodioxole-7-carboxamide] | 110 nM | 160%
12 | C[C@]1(C(=O)N[C@H]2C[C@@H](C3CCNCC3)Oc3cc(OC(F)(F)F)ccc32)COc2cc3c(cc21)OC(F)(F)O3 [Example 185, (7R)-2,2-difluoro-7-methyl-N-[(2S,4S)-2-(piperidin-4-yl)-7-(trifluoromethoxy)-3,4-dihydro-2H-1-benzopyran-4-yl]-6,7-dihydro-2H-furo[2,3-f][1,3]benzodioxole-7-carboxamide] | 3350 nM | 31%
13 | CC1(C(=O)Nc2cccc(N3CCC(C(=O)O)CC3)n2)COc2cc3c(cc21)OC(F)(F)O3 (stereo not shown) [Example 71, 1-{6-[(2,2-difluoro-7-methyl-6,7-dihydro-2H-furo[2,3-f][1,3]benzodioxole-7-carbonyl)amino]pyridin-2-yl}piperidine-4-carboxylic acid] | 1230 nM | 128%
14 | Cc1ccc(NC(=O)C2(C)COc3cc4c(cc32)OC(F)(F)O4)nc1-c1cccc(C(=O)N(C)C)c1 (stereo not shown) [Example 75, N-{6-[3-(dimethylcarbamoyl)phenyl]-5-methylpyridin-2-yl}-2,2-difluoro-7-methyl-6,7-dihydro-2H-furo[2,3-f][1,3]benzodioxole-7-carboxamide] | 1730 nM | 94%
15 | COc1ccc2c(c1)O[C@@H](c1ccc(C(=O)NC(CO)c3ccccc3)cn1)C[C@H]2NC(=O)[C@@]1(C)COc2cc3c(cc21)OC(F)(F)O3 (stereo partly drawn) [Example 216, 6-[(2R,4R)-4-{[(7R)-2,2-difluoro-7-methyl-6,7-dihydro-2H-furo[2,3-f][1,3]benzodioxole-7-carbonyl]amino}-7-methoxy-3,4-dihydro-2H-1-benzopyran-2-yl]-N-(2-hydroxy-1-phenylethyl)pyridine-3-carboxamide] | 30 nM | 130%
16 | COC(=O)c1cccc([C@H]2C[C@@H](NC(=O)[C@]3(C)COc4cc5c(cc43)OC(F)(F)O5)c3ccc(OC)cc3O2)c1 [Example 12] | > 20000 nM | 14%
17 | COc1cc2c(cc1Br)[C@H](NC(=O)[C@@]1(C)COc3cc4c(cc31)OC(F)(F)O4)C[C@H]([C@H]1CC[C@H](C(=O)O)CC1)O2 [Example 290, trans-4-[(2R,4R)-6-bromo-4-{[(7R)-2,2-difluoro-7-methyl-6,7-dihydro-2H-furo[2,3-f][1,3]benzodioxole-7-carbonyl]amino}-7-methoxy-3,4-dihydro-2H-1-benzopyran-2-yl]cyclohexane-1-carboxylic acid] | 530 nM | 189%

— US9840513B2 (AbbVie S.à.r.l., priority 2015, dated 2017)
